# pIC50: −log10 of the molar value. Starred links: 1 amine or outer side, 2 acyl side, 3 side chain; linkers in the order of their positions; H or OH if unused. Positions of bridges follow the written chain, without caps; N, C: chain ends. Non-standard residues stand in square brackets, D forms with d. Residues, ends and D or L forms follow the SMILES beside them. *: point of attachment. X2 = CN([C@@H](CC(=O)[*:2])C(=O)n1cccc1)[*:1]; NMePhe(4-Cl) = CN[C@@H](Cc1ccc(Cl)cc1)C(=O)O; X1 = O=C([C@H](CC(=O)[*:2])N[*:1])n1cccc1; Phe(3-Cl) = N[C@@H](Cc1cccc(Cl)c1)C(=O)O; NMeCha = CN[C@@H](CC1CCCCC1)C(=O)O; NMeF = CN[C@@H](Cc1ccccc1)C(=O)O; NMeI = CC[C@H](C)[C@H](NC)C(=O)O; NMeNle = CCCC[C@H](NC)C(=O)O; NMeNva = CCC[C@H](NC)C(=O)O; NMeV = CN[C@H](C(=O)O)C(C)C; NMeA = CN[C@@H](C)C(=O)O; Pyrrolidide = C1CCN(*)C1; Sar = CNCC(=O)O
# Columns and labels:
# [1] = Inhibition of biotin-tagged KRAS G12D mutant (unknown origin) to recombinant His-tagged SOS1 (unknown origin) protein-protein interaction incubated for 120 mins by AlphaLISA method; design: species or system Homo sapiens
# [2] = Apparent permeability in human Caco-2 cells incubated for 180 mins by LC-MS/MS method; type: ADME, cell-based
Structure (SMILES),pIC50 [1],Papp at 3 h [2] [×10⁻⁶ cm/s]
CC[C@H](C)[C@@H]1NC(=O)[C@H](C)N(C)C(=O)C[C@@H](C(=O)N2CCCC2)NC(=O)[C@H](C(C)C)N(C)C(=O)[C@H](Cc2ccccc2)N(C)C(=O)[C@H](Cc2c[nH]c3ccccc23)NC(=O)[C@H](Cc2cccc(Cl)c2)NC(=O)CN(C)C(=O)[C@H](Cc2ccc(Cl)cc2)N(C)C(=O)CN(C)C(=O)CN(C)C1=O ([NMeA]I[Sar][Sar][NMePhe(4-Cl)][Sar][Phe(3-Cl)]W[NMeF][NMeV]D-Pyrrolidide; lactam N-11),7.27,–
CC[C@H](C)[C@@H]1NC(=O)[C@H](C)N(C)C(=O)C[C@@H](C(=O)n2cccc2)N(C)C(=O)[C@H]([C@@H](C)CC)N(C)C(=O)[C@H](Cc2ccccc2)N(C)C(=O)[C@H](Cc2ccccc2)NC(=O)[C@H](Cc2cccc(Cl)c2)NC(=O)CN(C)C(=O)[C@H](Cc2ccc(Cl)cc2)N(C)C(=O)CN(C)C(=O)CN(C)C1=O (cyclo(F[NMeF][NMeI][X2][NMeA]I[Sar][Sar][NMePhe(4-Cl)][Sar][Phe(3-Cl)])),7.06,0.09
CCCC[C@H]1C(=O)N(C)[C@H](C(=O)n2cccc2)CC(=O)N(C)[C@@H](C)C(=O)N[C@@H]([C@@H](C)CC)C(=O)N(C)CC(=O)N(C)CC(=O)N(C)[C@@H](Cc2ccc(Cl)cc2)C(=O)N(C)CC(=O)N[C@@H](Cc2cccc(Cl)c2)C(=O)N[C@@H](Cc2ccccc2)C(=O)N(C)[C@@H](Cc2ccccc2)C(=O)N1C (cyclo(F[NMeF][NMeNle][X2][NMeA]I[Sar][Sar][NMePhe(4-Cl)][Sar][Phe(3-Cl)])),6.57,0.09
CC[C@H](C)[C@@H]1NC(=O)[C@H](C)N(C)C(=O)C[C@@H](C(=O)n2cccc2)N(C)C(=O)[C@H](C(C)C)N(C)C(=O)[C@H](Cc2ccccc2)N(C)C(=O)[C@H](Cc2ccccc2)NC(=O)[C@H](Cc2cccc(Cl)c2)NC(=O)CN(C)C(=O)[C@H](Cc2ccc(Cl)cc2)N(C)C(=O)CN(C)C(=O)CN(C)C1=O (cyclo(F[NMeF][NMeV][X2][NMeA]I[Sar][Sar][NMePhe(4-Cl)][Sar][Phe(3-Cl)])),7.15,0.11

# Other lines, results leading:
pIC50 [1],Papp at 3 h [2] [×10⁻⁶ cm/s],Structure (SMILES)
< 5.30,0.1,CC[C@H](C)[C@@H]1NC(=O)[C@H](C)N(C)C(=O)C[C@@H](C(=O)n2cccc2)NC(=O)[C@H](C)N(C)C(=O)[C@H](Cc2ccccc2)N(C)C(=O)[C@H](Cc2ccccc2)NC(=O)[C@H](Cc2cccc(Cl)c2)NC(=O)CN(C)C(=O)[C@H](Cc2ccc(Cl)cc2)N(C)C(=O)CN(C)C(=O)CN(C)C1=O (cyclo(F[NMeF][NMeA][X1][NMeA]I[Sar][Sar][NMePhe(4-Cl)][Sar][Phe(3-Cl)]))
6.17,0.07,CC[C@H](C)[C@@H]1NC(=O)[C@H](C)N(C)C(=O)C[C@@H](C(=O)n2cccc2)NC(=O)[C@H](CC2CCCCC2)N(C)C(=O)[C@H](Cc2ccccc2)N(C)C(=O)[C@H](Cc2ccccc2)NC(=O)[C@H](Cc2cccc(Cl)c2)NC(=O)CN(C)C(=O)[C@H](Cc2ccc(Cl)cc2)N(C)C(=O)CN(C)C(=O)CN(C)C1=O (cyclo(F[NMeF][NMeCha][X1][NMeA]I[Sar][Sar][NMePhe(4-Cl)][Sar][Phe(3-Cl)]))
7.01,0.14,CCC[C@H]1C(=O)N(C)[C@H](C(=O)n2cccc2)CC(=O)N(C)[C@@H](C)C(=O)N[C@@H]([C@@H](C)CC)C(=O)N(C)CC(=O)N(C)CC(=O)N(C)[C@@H](Cc2ccc(Cl)cc2)C(=O)N(C)CC(=O)N[C@@H](Cc2cccc(Cl)c2)C(=O)N[C@@H](Cc2ccccc2)C(=O)N(C)[C@@H](Cc2ccccc2)C(=O)N1C (cyclo(F[NMeF][NMeNva][X2][NMeA]I[Sar][Sar][NMePhe(4-Cl)][Sar][Phe(3-Cl)]))

# Reference: ChEMBL document CHEMBL5550184, “Structure-activity relationships of middle-size cyclic peptides, KRAS inhibitors derived from an mRNA display” (Bioorg Med Chem, 2024)
